Results published in patent US4985412A, “Phosphoric acid ester, process for preparing the same, and detergent composition containing the same” (Kao Corporation, priority 1987, dated 1991).

How the values were obtained:
[1] = Foaming capability (Reverse Stirring Method); type: physicochemical; details: for Foaming capability (Foam volume): reverse stirring, 40 °C, 1,000 rpm, 30 sec (reversed at every 5 sec), measured after 10 sec
Experimental: * The conditions of the reverse stirring
Rotation speed: 1,000 rpm
Stirring time: 30 sec. (reversed at every 5 sec.)
Measurement: performed after the test sample was left for 10 sec.

Krafft point = type: physicochemical
[2] = comparison with sodium dodecyl phosphate, in words

| SMILES | Foaming capability compared with sodium dodecyl phosphate [1, 2] | Foaming capability (Foam volume) [1] | Krafft point (Krafft point) | Krafft point compared with sodium dodecyl phosphate (Krafft point; [2]) |
| --- | --- | --- | --- | --- |
| CCCCCCCCCCCCOP(=O)(O)OCC(O)CN(C)CC(=O)O (centres unmarked) [Example 1, sodium dodecyl 2-hydroxy-3-N-carboxymethyl-N-methylammoniopropyl phosphate] | almost the same foaming capability | 250 mL | < 0 °C | extremely lower Krafft point |
| CCCCCCCCCCCCOP(=O)([O-])OCC(O)CO.[Na+] (centres unmarked) [sodium dodecyl 2,3-dihydroxypropyl phosphate] |  | 240 mL | < 0 °C |  |
| CCCCCCCCCCCCOP(=O)(O)O [1-sodium dodecyl phosphate] |  | 260 mL | 32 °C |  |
